Usually inhibition stands for the drop in the measured response relative to a control, in per cent.

The values below come from patent US4782069A, “1,4-Dihydropiridines and their use as antithrombotic drugs” (Alter, S.A., priority 1986, dated 1988).

Assay [1] deals with platelet thromboembolism in mice. Kind of assay: "In vivo" thrombosis model in the mouse (collagen + epinephrine i.v.). Also noted: species or system CD-1 Charles River male mice. The note with it: suspension in 0.5% carboxymethylcellulose, one to four hours after administration, i.v. 15 ug collagen and 1.8 ug epinephrine. As for the experimental part: (B) "IN VIVO" THROMBOSIS MODEL (DiMinno, G., Silver, M. J.; J. Pharmacol. Exptl. Ther. 225:57 (1983)).
This is a suitable method for the screening of antithrombotic agents having a primary activity on platelet thormboembolism.
CD-1 Charles River male mice weighing 30 g were used. They received and i.v. injection of 15 ug collagen and 1.8 ug epinephrine in 100 ul of isotonic solution. About the 90% of the animals died or were paralysed for more than 15 minutes.
Drugs were intraperitoneally administered as a suspension in 0.5% carboxymethylcellulose and the protecting effect thereof against thrombosis was measured one to four hours after the administration.

The test system of assay [2] is human platelets (ADP-induced aggregation). Kind of assay: "In vitro" aggregation on human platelets (PRP), ADP-induced. Format: cell-based. The settings on record: Platelet, 0.25 h, compound 10^-4 M, 37° C., 15 minutes, 2.5 uM ADP. The procedure: (§1) (Born, G.V.R., Nature 194:927 (1962)).
(§2) Citrated human blood was used, from which platelet-rich plasma (PRP) was prepared. 450 ul PRP aliquots were incubated at 37° C. with the assayed compounds at a single concentration of 10^-4 M for 15 minutes. Aggregating agents (2 ug/ml collagen and 2.5 uM ADP) were added in a 50 ul volume and the aggregation was measured as optical density decrease in the platelet suspension.

In assay [3] the test system is human platelets (collagen-induced aggregation). Briefly: "In vitro" aggregation on human platelets (PRP), collagen-induced. The settings on record: Platelet, 0.25 h, compound 10^-4 M, 37° C., 15 minutes, 2 ug/ml collagen. Format: cell-based. As for the experimental part: as §1, §2
Assay [4] has as its system human platelets (ATP secretion). Kind of assay: Releasing reaction (ATP secretion from activated platelets), simultaneous to collagen aggregation. Format: cell-based. The note with it: Platelet, 0.25 h, human PRP, compound 10^-4 M, 37° C., 15 minutes, 2 ug/ml collagen. As for the experimental part: as §2

For the compound `OCCN(CCO)c1nc(N2CCCCC2)c2nc(N(CCO)CCO)nc(N3CCCCC3)c2n1` [DIPYRIDAMOL, reference compound], the Protection % in assay [1] (30 mg/kg intraperitoneal) and in assay [1] (60 mg/kg intraperitoneal) was 30% in each case.

Turning to `CCOC(=O)C1=C(C)NC(C)=C(C(=O)OCCN2C(=O)c3ccccc3S2(=O)=O)C1C` (centres unmarked) [Example 1, 2-{N-(1,2-benzisothiazolyl-3(2H)one-1,1-dioxide)} ethyl 2,6-dimethyl-5-ethoxycarbonyl-4-methyl-1,4-dihydropyridine-3-carboxylate], the inhibition at 100 µM turned out to be 12% in assay [2], 84% in assay [3] and 80% in assay [4]. Also, the figures for the Protection % in assay [1] (30 mg/kg intraperitoneal) and in assay [1] (60 mg/kg intraperitoneal) were 50% and 70%, respectively.

On to `COC(=O)C1=C(C)NC(C)=C(C(=O)OCCN2C(=O)c3ccccc3S2(=O)=O)C1C` (centres unmarked) [Example 2, 2-{N-(1,2-benzisothiazolyl-3(2H)one-1,1-dioxide)} ethyl 2,6-dimethyl-4-methyl-5-methoxycarbonyl-1,4-dihydropyridine-3-carboxylate], for which the inhibition at 100 µM in assay [2] was determined as 20%; in assay [3] it was 48%; in assay [4], 43%. In addition, the Protection % is 0% in assay [1] (30 mg/kg intraperitoneal) and 42% in assay [1] (60 mg/kg intraperitoneal).

Take `CC1=C(C(=O)OCCNC(=O)c2ccccc2O)C(C)C(C(=O)OCCN2C(=O)c3ccccc3S2(=O)=O)=C(C)N1` (centres unmarked) [Example 3]: the figures for the inhibition at 100 µM in assay [2], in assay [3] and in assay [4] were 15%, 24% and 18%, respectively. For the same compound, the Protection % in assay [1] (30 mg/kg intraperitoneal) and in assay [1] (60 mg/kg intraperitoneal) was 62% throughout.

On to `COC(=O)C1=C(C)NC(C)=C(C(=O)OCN2C(=O)c3ccccc3S2(=O)=O)C1C` (centres unmarked) [Example 4, {N-(1,2-benzisothiazolyl-3(2H)one-1,1-dioxide)} methyl 2,6-dimethyl-4-methyl-5-methoxycarbonyl-1,4-dihydropyridine-3-carboxylate], for which the inhibition at 100 µM in assay [2] was found to be 5%; in assay [3], 14%; in assay [4], 19%. The Protection % in assay [1] (30 mg/kg intraperitoneal) and in assay [1] (60 mg/kg intraperitoneal) was 20% throughout.

Regarding `CCOC(=O)C1=C(C)NC(C)=C(C(=O)OCN2C(=O)c3ccccc3S2(=O)=O)C1C` (centres unmarked) [Example 5, {N-(1,2-benzisothiazolyl-3(2H)one-1,1-dioxide)} methyl 2,6-dimethyl-5-ethoxycarbonyl-4-methyl-1,4-dihydropyridine-3-carboxylate], the values for the inhibition at 100 µM in assay [2], in assay [3] and in assay [4] were 20%, 55% and 51%, respectively. In addition, the Protection % is reported as 30% in assay [1] (30 mg/kg intraperitoneal) and 50% in assay [1] (60 mg/kg intraperitoneal).

Take `CCCCC1C(C(=O)OC)=C(C)NC(C)=C1C(=O)OCCN1C(=O)c2ccccc2S1(=O)=O` (centres unmarked) [Example 6, 2-{N-(1,2-benzisothiazolyl-3(2H)one-1,1-dioxide)} ethyl 4-n-butyl-2,6-dimethyl-5-methoxycarbonyl-1,4-dihydropyridine-3-carboxylate]: the figures for the inhibition at 100 µM in assay [2], in assay [3] and in assay [4] were 8%, 15% and 29%, respectively. Moreover, the Protection % amounted to 12% in assay [1] (30 mg/kg intraperitoneal) and 34% in assay [1] (60 mg/kg intraperitoneal).
